The test system of data set [1] is myocardium. The data set is described as follows: Mouse PET/CT imaging. The format is in vivo, Slc:ICR mice. Particulars: mice, i.v. caudal vein; for contrast of myocardial images: PET/CT 60 minutes after administration; for accumulation of radioactivity in the myocardium (PET/CT images): imaged 60 minutes after administration for 10 minutes. As to the method:
The animals used in this measurement were 6-10-week-old male Slc:ICR mice (from Japan SLC, Inc.). […] Then, the mice were fixed under isoflurane anesthesia (2%, 1.5 mL/min.), and after 60 minutes of the administration, the whole bodies of the mice were imaged by small-animal PET (ClairvivoPET produced by Shimadzu Corporation) for 10 minutes. Subsequently, while the mice were kept fixed, their whole bodies were imaged by small-animal CT (ClairvivoCT produced by Shimadzu Corporation). The PET data were reconstructed by 3D-DRAMA, and the pixel values of the obtained PET images were converted to SUV to generate SUV images. These images were fused with CT images to produce fused images.

Data set [2] is described as follows: Rat biodistribution study. Format: in vivo, Wistar rats. Particulars: rats. On the procedure: (§1) The animals used in this measurement were 6-8-week-old male Slc:ICR mice (from Japan SLC, Inc.) (n=4). Each of different physiological saline solutions of the [^18F]-labeled compounds (200 μL, 370-740 kBq) used in this measurement was administered to the awake mice via the caudal vein, and after 60 or 120 minutes of the administration, the mice were euthanized by cervical dislocation under isoflurane anesthesia. After blood was sampled from the heart immediately, the heart, lung, liver, spleen, kidney, small intestine, thigh muscle, thigh bone, and brain were excised and measured for amount of radioactivity by a γ counter. The weights of the excised organs were measured, and on that basis, the accumulation rates per gram of the organs with respect to dose (% dose/g of organ, % ID/g) were calculated as indicators for accumulation of the chemical compounds used (n=4).
The biodistribution study of [^18F]TAP-018 in rats was conducted by the same procedure as in Test Example 2 using 6-week-old male Wistar rats (from Japan SLC, Inc.) (n=4). The results are summarized in a bar graph (FIG. 4). […] This value is about ten times higher than the value of 1.5 for [^18F]FBnTP which has been used as a gold standard, and is sufficiently higher than the value of 9.2 for [^18F]FTPP which is currently under clinical study.

For data set [3], the system named is myocardium. The data set is described as follows: Small-animal PET study in rats. Format: in vivo, Wistar rats. As to conditions: i.v., PET 0 to 120 minutes. On the procedure: The myocardial imaging study of [^18F]TAP-018 in rats was conducted using 6-week-old male Wistar rats. 200 μL (7.83-9.66 MBq) of a physiological saline solution of the test compound [^18F]TAP-018 was administered via the caudal vein to the rats fixed under isoflurane anesthesia (2%, 1.5 mL/min.), and then the whole bodies of the rats were imaged by small-animal PET at time points from 0 to 120 minutes after the administration. Subsequently, while the rats were kept fixed, their whole bodies were imaged by small-animal CT. The PET data were reconstructed by 3D-DRAMA, and the pixel values of the obtained PET images were converted to SUV to generate SUV images. These images were fused with CT images to produce fused images. Further, the locations of the myocardium, lung and liver were identified based on the fused images, and regions of interest (ROI) were drawn to calculate respective SUVavg values.

Data set [4] in a line: Mouse biodistribution study. The format is in vivo, Slc:ICR mice. As to conditions: mice; for accumulation of labeled compound in the myocardium versus adjacent organs: i.v., 60 or 120 minutes after administration, gamma counter, n=4; for ratio of radioactivity accumulations in the myocardium and liver (heart/liver ratio): time point of 60 minutes. As to the method: as §1
The conditions of data set [5]: background statement; cited from earlier work.
For data set [6] the following is noted: comparison values quoted without source or species; cited from earlier work.

Consider `[18F]CCOc1cccc([P+](Cc2ccccc2)(c2ccccc2)c2ccccc2)c1.[Br-]` [[^18F]TAP-018, Benzyl[3-(2-[^18F]fluoroethoxy)phenyl]-diphenylphosphonium bromide], for which, in the data set with myocardium [1], the “contrast of myocardial images” value is reported as “high-contrast myocardial images were obtained” and the “accumulation of radioactivity in the myocardium (PET/CT images)” value (from here on “accumulation … (PET/CT images)”) was “accumulation of radioactivity in the myocardium was observed”. The “accumulation in the heart” value in data set [2] (i.v., n=4) is listed as “highly accumulated in the heart”. Besides, in data set [2] (time point of 60 minutes), the heart/liver ratio result is listed as “about 15.5”. In the data set with myocardium [3], the “accumulation of radioactivity in the heart (radioactivity-time curve)” value is “a high level of radioactivity accumulated in the heart immediately after the administration” and the “disappearance of radioactivity from the liver (radioactivity-time curve)” value is listed as “radioactivity disappeared rapidly from the liver until 10 minutes after the administration”. Also, in data set [4], the “accumulation of labeled compound in the myocardium versus adjacent organs” value was “more highly accumulates in the myocardium than in other adjacent organs”; the “ratio of radioactivity accumulations in the myocardium and liver (heart/liver ratio)” value (shortened to “ratio … (heart/liver ratio)”) was found to be 9.40.

For the molecule `COc1ccc(C[P+](c2ccccc2)(c2ccccc2)c2cccc(OCC[18F])c2)cc1` [[^18F]TAP-019, [3-(2-[^18F]fluoroethoxy)phenyl]-(4-methoxyphenyl)methyl-diphenylphosphonium bromide], in the data set on myocardium [1], the “contrast of myocardial images” value is on record as “high-contrast myocardial images were obtained” and the “accumulation … (PET/CT images)” value was “accumulation of radioactivity in the myocardium was observed”. Besides, in data set [4], the “accumulation of labeled compound in the myocardium versus adjacent organs” value was “more highly accumulates in the myocardium than in other adjacent organs”; the “ratio … (heart/liver ratio)” value is recorded as 4.56.

`[18F]c1ccc(C[P+](c2ccccc2)(c2ccccc2)c2ccccc2)cc1.[Br-]` [[^18F]FBnTP, 4-[^18F]fluorobenzyl-triphenylphosphonium bromide]: the “accumulation in liver relative to myocardium” value in data set [5] is “accumulating not only in the myocardium but also in the liver adjacent to the myocardium to the same extent”. In addition, the “heart/liver ratio (comparison values of reference agents)” value in data set [6] was 1.5.

As for `[18F]CCOc1ccc([P+](Cc2ccccc2)(c2ccccc2)c2ccccc2)cc1` [[^18F]TAP-001, Benzyl-[4-(2-[^18F]fluoroethoxy)phenyl]-diphenylphosphonium bromide], the “accumulation … (PET/CT images)” value in the data set with myocardium [1] is listed as “accumulation of radioactivity in the myocardium was observed”. In data set [4], the “accumulation of labeled compound in the myocardium versus adjacent organs” value was “more highly accumulates in the myocardium than in other adjacent organs”; the “ratio … (heart/liver ratio)” value amounted to 2.70.

As for `[18F]CCOc1cccc([P+](CCCc2ccccc2)(c2ccccc2)c2ccccc2)c1.[Br-]` [[^18F]TAP-022, [^18F][3-(2-fluoroethoxy)phenyl]-(3-phenylpropyl)-diphenylphosphonium bromide], in the data set with myocardium [1], the “contrast of myocardial images” value is “high-contrast myocardial images were obtained” and the “accumulation … (PET/CT images)” value is given as “accumulation of radioactivity in the myocardium was observed”. In addition, in data set [4], the “accumulation of labeled compound in the myocardium versus adjacent organs” value was “more highly accumulates in the myocardium than in other adjacent organs”; the “ratio … (heart/liver ratio)” value is 4.98.

Turning to `[18F]c1ccc([P+](c2ccccc2)(c2ccccc2)c2ccccc2)cc1` [[^18F]FTPP], in data set [6], the “heart/liver ratio (comparison values of reference agents)” value is 9.2.
